Assays:
[1] = biological target: T1, GST tagged LXRbeta LBD (ligand binding domain) (Homo sapiens, UniProt P55055); experiment: LanthaScreen TR-FRET Liver X Receptor Coactivator Assay, LXR beta-LBD; format: biochemical; conditions: relative to reference T0901317; for EC50: Inflection Point (potency), co-activator recruitment, read-out: LXR beta IP; for Emax / LXR beta act @ max dose (%): activity at max dose (efficacy); for Emax: read-out: LXR beta act @ max dose (%)
T1 construct: purchased Invitrogen pv4658.pps
T1 sequence (P55055 222-460 limits assumed): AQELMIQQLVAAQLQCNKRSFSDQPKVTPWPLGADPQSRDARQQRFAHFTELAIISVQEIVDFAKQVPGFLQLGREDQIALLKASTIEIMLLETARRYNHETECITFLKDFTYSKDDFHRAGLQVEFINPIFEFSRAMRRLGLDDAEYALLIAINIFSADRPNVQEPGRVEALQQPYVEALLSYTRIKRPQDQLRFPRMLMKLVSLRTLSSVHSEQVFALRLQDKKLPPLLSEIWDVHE
Method in brief: (§1)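 Coactivator-recruitment TR-FRET format: GST-LBD, fluorescein-labelled coactivator peptide, Tb-conjugated anti-GST antibody, incubated at RT. Potency and efficacy scaled to T0901317.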

[2] = biological target: T2, GST tagged LXRalpha LBD (ligand binding domain) (Homo sapiens, UniProt Q13133); experiment: LanthaScreen TR-FRET Liver X Receptor Coactivator Assay, LXR alpha-LBD; format: biochemical; conditions: relative to reference T0901317; for EC50: read-out: LXR alpha IP; for Emax / LXR alpha act @ max dose (%): activity at max dose (efficacy); for Emax: read-out: LXR alpha act @ max dose (%)
T2 construct: purchased Invitrogen pv4655
T2 sequence (Q13133 209-447 limits assumed): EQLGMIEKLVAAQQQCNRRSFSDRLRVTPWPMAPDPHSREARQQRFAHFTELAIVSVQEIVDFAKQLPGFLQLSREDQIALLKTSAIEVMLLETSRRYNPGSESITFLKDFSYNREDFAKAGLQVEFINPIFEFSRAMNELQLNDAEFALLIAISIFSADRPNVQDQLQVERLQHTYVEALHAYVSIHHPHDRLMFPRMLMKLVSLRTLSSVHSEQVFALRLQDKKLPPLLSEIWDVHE
Method in brief: as §1

[3] = Inflection Point (potency), co-activator recruitment

| Structure (SMILES) | EC50 [1] | Emax [1] | EC50 [2, 3] | Emax [2] | LXR beta act @ max dose (%) [1] | LXR alpha act @ max dose (%) [2] | LXR alpha IP (nM) [2, 3] |
| --- | --- | --- | --- | --- | --- | --- | --- |
| Cc1ccc(C2(C(=O)N3CCC(C4CCN(c5ccc(C(=O)N(C)C)c(Cl)c5)CC4)CC3)CCC2)cc1 [Example A-72, 2-chloro-N,N-dimethyl-4-(1′-{[1-(4-methylphenyl)cyclobutyl]carbonyl}-4,4′-bipiperidin-1-yl)benzamide] | 112 nM | 96% | 1260 nM | 30% | – | – | – |
| CN(C)C(=O)c1ccc(N2CCC(C3CCN(C(=O)C(C)(C)c4ccc(Cl)cc4)CC3)CC2)cc1Cl [Example A-44, 2-chloro-4-{1′-[2-(4-chlorophenyl)-2-methylpropanoyl]-4,4′-bipiperidin-1-yl}-N,N-dimethylbenzamide] | 143 nM | 95% | 1980 nM | 22% | – | – | – |
| CCCC(O)(C(=O)N1CCC(C2CCN(c3ccc(C(=O)N(C)C)c(Cl)c3)CC2)CC1)C(F)(F)F (centres unmarked) [Example A-84, 2-chloro-4-{1′-[2-hydroxy-2-(trifluoromethyl)pentanoyl]-4,4′-bipiperidin-1-yl}-N,N-dimethylbenzamide] | 173 nM | – | 1370 nM | – | 116% | 63% | – |
| CC(C)CC(O)(C(=O)N1CCC(C2CCN(c3ccc(C(=O)N(C)C)c(Cl)c3)CC2)CC1)C(F)(F)F (centres unmarked) [Example A-90, 2-chloro-4-{1′-[2-hydroxy-4-methyl-2-(trifluoromethyl)pentanoyl]-4,4′-bipiperidin-1-yl}-N,N-dimethylbenzamide] | 108 nM | – | 686 nM | – | 70% | 45% | – |
| CC[C@](O)(C(=O)N1CCC(C2CCN(c3ccc(C(=O)N(C)C)c(Cl)c3)CC2)CC1)C(F)(F)F (single isomer, unassigned) [Example A-42] | 61 nM | 117% | 3000 nM | 67% | – | – | – |
| CN(C)C(=O)c1ccc(N2CCC(C3CCN(C(=O)C4(c5ccc(Cl)c(Cl)c5)CCC4)CC3)CC2)cc1Cl [Example A-74, 2-chloro-4-(1′-{[1-(3,4-dichlorophenyl)cyclobutyl]carbonyl}-4,4′-bipiperidin-1-yl)-N,N-dimethylbenzamide] | 413 nM | 57% | – | 0% | – | – | NO IP |
| CN(C)C(=O)c1ccc(N2CCC(C3CCN(c4ccccc4C(F)(F)F)CC3)CC2)cc1Cl [Example A106, 2-chloro-N,N-dimethyl-4-{1′-[2-(trifluoromethyl)phenyl]-4,4′-bipiperidin-1-yl}benzamide] | 526 nM | 91% | 2110 nM | 27% | – | – | – |

Results, then the compound that gave them:

| EC50 [1] | Emax [1] | EC50 [2, 3] | Emax [2] | LXR beta act @ max dose (%) [1] | LXR alpha act @ max dose (%) [2] | LXR alpha IP (nM) [2, 3] | Structure (SMILES) |
| --- | --- | --- | --- | --- | --- | --- | --- |
| 125 nM | 72% | 1780 nM | 25% | – | – | – | O=C(c1ccc(N2CCC(C3CCN(C(=O)[C@](O)(c4ccccc4)C(F)(F)F)CC3)CC2)cc1Cl)N1CCC[C@@H]1CO [Example E-23, (2R)-3-[1′-(3-chloro-4-{[(2R)-2-(hydroxymethyl)pyrrolidin-1-yl]carbonyl}phenyl)-4,4′-bipiperidin-1-yl]-1,1,1-trifluoro-3-oxo-2-phenylpropan-2-ol] |
| 145 nM | 62% | 1720 nM | 18% | – | – | – | CC(c1ccon1)N(C)C(=O)c1ccc(N2CCC(C3CCN(C(=O)[C@](O)(c4ccccc4)C(F)(F)F)CC3)CC2)cc1Cl (stereo partly drawn) [Example E-51, 2-chloro-N-(1-isoxazol-3-ylethyl)-N-methyl-4-{1′-[(2R)-3,3,3-trifluoro-2-hydroxy-2-phenylpropanoyl]-4,4′-bipiperidin-1-yl}benzamide] |
| 156 nM | 33% | 1070 nM | 1% | – | – | – | CC(C)N(C(=O)c1ccc(N2CCC(C3CCN(C(=O)C(O)(C(C)C)C(F)(F)F)CC3)CC2)cc1Cl)C(C)C (centres unmarked) [Example E-11, 2-chloro-4-{1′-[2-hydroxy-3-methyl-2-(trifluoromethyl)butanoyl]-4,4′-bipiperidin-1-yl}-N,N-bis(1-methylethyl)benzamide] |
| 182 nM | 79% | 2990 nM | 28% | – | – | – | O=C1CCN(C(=O)c2ccc(N3CCC(C4CCN(C(=O)[C@](O)(c5ccccc5)C(F)(F)F)CC4)CC3)cc2Cl)C1 [Example E-31] |

Reference: patent US20180305332A1, “Bispiperidinyl Derivatives as Liver X Receptor Beta Agonists, Compositions, and Their Use” (Merck Sharp & Dohme Corp., priority 2015, published 2018)
